The term inhibition denotes the drop in the measured response relative to a control, in per cent. The Ki is a measure of affinity in units of concentration, obtained from inhibition or displacement.

The values below come from ChEMBL document CHEMBL4823292, “Design, synthesis, and functional evaluation of triazine-based bivalent agents that simultaneously target the active site and hot spot of phosphatase Cdc25B” (Bioorg Med Chem Lett, 2021).

Calls of active or inactive are those of the source. The calls are words filed in the database; no cut-off is given here.

For experiment [1], the target named is T1, M-phase inducer phosphatase 2 (Homo sapiens) (UniProt P30305).
T1 sequence (whole entry): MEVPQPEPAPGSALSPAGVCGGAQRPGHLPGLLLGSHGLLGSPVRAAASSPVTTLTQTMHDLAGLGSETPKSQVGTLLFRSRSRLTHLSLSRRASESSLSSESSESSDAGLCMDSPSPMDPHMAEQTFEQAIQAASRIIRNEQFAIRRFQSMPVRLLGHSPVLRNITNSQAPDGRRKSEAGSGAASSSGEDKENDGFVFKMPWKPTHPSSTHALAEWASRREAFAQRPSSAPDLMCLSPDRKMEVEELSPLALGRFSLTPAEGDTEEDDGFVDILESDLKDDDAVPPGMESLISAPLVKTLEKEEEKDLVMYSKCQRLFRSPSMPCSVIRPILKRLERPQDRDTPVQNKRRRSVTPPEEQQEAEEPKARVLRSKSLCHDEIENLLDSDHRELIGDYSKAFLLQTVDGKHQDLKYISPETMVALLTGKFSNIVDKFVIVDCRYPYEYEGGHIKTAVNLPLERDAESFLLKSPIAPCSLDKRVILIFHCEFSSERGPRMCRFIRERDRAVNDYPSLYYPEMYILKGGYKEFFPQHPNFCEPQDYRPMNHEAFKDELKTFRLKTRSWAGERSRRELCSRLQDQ
Description: Inhibition of recombinant human Cdc25B ([…] residues) using O-methylfluorescein phosphate as substrate at 1 to 500 uM by fluorescence assay. Conditions: dose 1-500 µM.

Experiment [2] concerns the target T1, M-phase inducer phosphatase 2 (Homo sapiens). Put plainly: Inhibition of recombinant human Cdc25B ([…] residues) using O-methylfluorescein phosphate as substrate at 1 to 30 uM by fluorescence assay. The following applies: dose 1-30 µM.
For experiment [3] the target is unchanged. Description: Inhibition of recombinant human Cdc25B ([…] residues) using O-methylfluorescein phosphate as substrate at 30 uM by fluorescence assay.
For experiment [4], the target named is T2, M-phase inducer phosphatase 1 (Homo sapiens) (UniProt P30304).
T2 sequence (whole entry): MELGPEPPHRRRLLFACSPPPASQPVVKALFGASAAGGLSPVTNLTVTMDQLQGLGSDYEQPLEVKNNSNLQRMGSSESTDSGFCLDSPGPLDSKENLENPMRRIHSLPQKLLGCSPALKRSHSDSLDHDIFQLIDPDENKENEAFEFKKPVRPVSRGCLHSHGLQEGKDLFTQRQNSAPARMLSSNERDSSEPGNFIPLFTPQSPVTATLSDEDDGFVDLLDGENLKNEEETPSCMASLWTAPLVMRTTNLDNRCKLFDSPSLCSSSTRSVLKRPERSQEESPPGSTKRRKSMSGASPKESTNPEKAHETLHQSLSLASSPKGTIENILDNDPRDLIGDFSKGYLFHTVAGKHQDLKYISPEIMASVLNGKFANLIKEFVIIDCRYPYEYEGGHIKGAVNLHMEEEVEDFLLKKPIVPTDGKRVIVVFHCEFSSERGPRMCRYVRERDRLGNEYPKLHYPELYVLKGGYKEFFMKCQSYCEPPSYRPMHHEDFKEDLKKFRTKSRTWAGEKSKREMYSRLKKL
Description: Inhibition of Cdc25A (unknown origin) at 1 to 30 uM. Conditions: dose 1-30 µM.

Experiment [5] addresses T2, M-phase inducer phosphatase 1 (Homo sapiens). Description: Inhibition of Cdc25A (unknown origin) at 1 to 500 uM by fluorescence assay. Conditions: dose 1-500 µM.
Experiment [6] has as its target T3, M-phase inducer phosphatase 2 (Homo sapiens, UniProt P30305).
T3 sequence (P30305 whole entry): T1 sequence (whole entry)
Put plainly: Competitive inhibition of recombinant human Cdc25B ([…] residues) assessed as hydrolysis of substrate O-methylfluorescein phosphate by Lineweaver-Burk plot analysis.

For the molecule `C[C@H](Nc1nc(NCCCCCNC(=O)CCCNc2nc(N[C@@H](CC(=O)O)C(=O)O)nc(N[C@@H](Cc3ccc(O)cc3)C(=O)O)n2)nc(N[C@@H](C)C(=O)O)n1)C(=O)O`, the “inhibition (active/inactive)” value in experiment [1] is “Active”.

In the case of `O=C(O)C[C@H](Nc1nc(O)nc(N[C@@H](Cc2ccc(O)cc2)C(=O)O)n1)C(=O)O`, the inhibition result in experiment [2] was “inactive”.

For the molecule `O=C(O)C[C@H](Nc1nc(NCCCCCCCCCCNc2nc(N[C@@H](CC(=O)O)C(=O)O)nc(N[C@@H](Cc3c[nH]c4ccccc34)C(=O)O)n2)nc(N[C@@H](Cc2ccc(O)cc2)C(=O)O)n1)C(=O)O`, the inhibition in experiment [3] came to 1.5%. Also, the inhibition result in experiment [4] is “Active”.

On to `CC(C)C[C@H](Nc1nc(NCCCCCNC(=O)CCCNc2nc(N[C@@H](CC(=O)O)C(=O)O)nc(N[C@@H](Cc3ccc(O)cc3)C(=O)O)n2)nc(N[C@@H](C)C(=O)O)n1)C(=O)O`, for which the “inhibition (active/inactive)” value in experiment [1] was “Active”. Moreover, in experiment [5], the inhibition entry was “inactive”.

For the molecule `COC(=O)[C@H](CCCCN)Nc1nc(NCCCCCNC(=O)CCCNc2nc(N[C@@H](CCCCN)C(=O)OC)nc(N[C@@H](CCCCN)C(=O)OC)n2)nc(N[C@@H](CCCCN)C(=O)OC)n1`, the “inhibition (active/inactive)” value in experiment [1] is “Active”.

On to `C[C@H](Nc1nc(NCCCCCNC(=O)CCCNc2nc(N[C@@H](C)C(=O)O)nc(N[C@@H](C)C(=O)O)n2)nc(N[C@@H](C)C(=O)O)n1)C(=O)O`, for which the “inhibition (active/inactive)” value in experiment [1] was “Active”. Also, the inhibition result in experiment [5] was “Active”.

As for `O=C(O)C[C@H](Nc1nc(NCCCC(=O)NCCCCCNc2nc(N[C@@H](CC(=O)O)C(=O)O)nc(N[C@@H](Cc3c[nH]c4ccccc34)C(=O)O)n2)nc(N[C@@H](Cc2ccc(O)cc2)C(=O)O)n1)C(=O)O`, the “inhibition (active/inactive)” value in experiment [1] is “Active”. Also, in experiment [5], the inhibition result is “inactive”. Moreover, in experiment [6], the Ki was determined as 2600 nM. Moreover, the inhibition in experiment [3] is 43%.

As to `O=C(O)C[C@H](Nc1nc(O)nc(N[C@@H](Cc2c[nH]c3ccccc23)C(=O)O)n1)C(=O)O`, in experiment [2], the inhibition result was “inactive”.
